Data from PubChem BioAssay AID248 (DTP/NCI, 2004).
Toxic doses and inconclusive results are not listed. No stated cut-off is given here; in the data, active means T/C of 150% or more; inactive means T/C below 125%.

Tested on: L1210 leukemia ip in BDF1 mice, survival T/C
Experiment: NCI In Vivo Anticancer Drug Screen. Data for tumor model L1210 Leukemia (intraperitoneal) in B6D2F1 (BDF1) mice
Conditions: endpoint: mean survival time, higher = longer survival
Procedure, shortened: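 Read-out is survival time, reported as the treated-group measurement over the vehicle-control measurement.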

[1] = dose: 100.0 mg/kg/injection, schedule: Q01DX001 (ip), vehicle: carboxymethylcellulose (CMC)
[2] = dose: 200.0 mg/kg/injection, schedule: Q01DX001 (ip), vehicle: carboxymethylcellulose (CMC)
[3] = dose: 400.0 mg/kg/injection, schedule: Q01DX001 (ip), vehicle: carboxymethylcellulose (CMC)
[4] = dose: 75.0 mg/kg/injection, schedule: Q01DX009 (ip), vehicle: saline
[5] = dose: 300.0 mg/kg/injection, schedule: Q01DX009 (ip), vehicle: saline
[6] = dose: 200.0 mg/kg/injection, schedule: Q04DX003 (ip), vehicle: saline with Tween-80
[7] = dose: 400.0 mg/kg/injection, schedule: Q04DX003 (ip), vehicle: saline with Tween-80
[8] = dose: 100.0 mg/kg/injection, schedule: Q01DX001 (ip), vehicle: Klucel (hydroxypropylcellulose) (HPC)
[9] = dose: 100.0 mg/kg/injection, schedule: Q01DX009 (ip), vehicle: Klucel (hydroxypropylcellulose) (HPC)
[10] = dose: 100.0 mg/kg/injection, schedule: Q04DX003 (ip), vehicle: Klucel (hydroxypropylcellulose) (HPC)
[11] = dose: 200.0 mg/kg/injection, schedule: Q01DX001 (ip), vehicle: Klucel (hydroxypropylcellulose) (HPC)
[12] = dose: 200.0 mg/kg/injection, schedule: Q01DX009 (ip), vehicle: Klucel (hydroxypropylcellulose) (HPC)
[13] = dose: 200.0 mg/kg/injection, schedule: Q04DX003 (ip), vehicle: Klucel (hydroxypropylcellulose) (HPC)
[14] = dose: 400.0 mg/kg/injection, schedule: Q01DX001 (ip), vehicle: Klucel (hydroxypropylcellulose) (HPC)
[15] = dose: 400.0 mg/kg/injection, schedule: Q04DX003 (ip), vehicle: Klucel (hydroxypropylcellulose) (HPC)
[16] = dose: 100.0 mg/kg/injection, schedule: Q01DX009 (ip), vehicle: saline with Tween-80
[17] = dose: 200.0 mg/kg/injection, schedule: Q01DX009 (ip), vehicle: saline with Tween-80
[18] = dose: 100.0 mg/kg/injection, schedule: Q04DX003 (ip), vehicle: acetone
[19] = dose: 200.0 mg/kg/injection, schedule: Q04DX003 (ip), vehicle: acetone
[20] = dose: 400.0 mg/kg/injection, schedule: Q04DX003 (ip), vehicle: acetone

Measured: T/C

O=C1c2cc(Br)ccc2-c2c(Cl)cc(Br)cc21
inactive: [1] 105 % of control | [2] 97 % of control | [3] 105 % of control

CC[CH2][Sn]([Br])([CH2]CC(=O)OC)[CH2]CC(=O)OC
inactive: dose: 100.0 mg/kg/injection, schedule: Q04DX002 (ip), vehicle: saline with Tween-80 93 % of control | dose: 200.0 mg/kg/injection, schedule: Q04DX002 (ip), vehicle: saline with Tween-80 96 % of control

CC(C)CCC[C@@H](C)[C@H]1CC[C@H]2[C@@H]3CC=C4C[C@@H](Cl)CC[C@]4(C)[C@H]3CC[C@]12C
inactive: dose: 100.0 mg/kg/injection, schedule: Q01DX009 (sc), vehicle: Klucel (hydroxypropylcellulose) (HPC) 110 % of control | dose: 200.0 mg/kg/injection, schedule: Q01DX009 (sc), vehicle: Klucel (hydroxypropylcellulose) (HPC) 101 % of control | dose: 400.0 mg/kg/injection, schedule: Q01DX009 (sc), vehicle: Klucel (hydroxypropylcellulose) (HPC) 114 % of control

NC(CSc1ccc(Cl)cc1)C(=O)O (stereo not given)
inactive: dose: 100.0 mg/kg/injection, schedule: Q04DX003 (sc), vehicle: steriod suspending solution 86 % of control | dose: 200.0 mg/kg/injection, schedule: Q04DX003 (sc), vehicle: steriod suspending solution 86 % of control | dose: 400.0 mg/kg/injection, schedule: Q04DX003 (sc), vehicle: steriod suspending solution 92 % of control

CCCCC(CSC#N)SC#N (stereo not given)
inactive: dose: 3.13 mg/kg/injection, schedule: Q01DX009 (ip), vehicle: saline with Tween-80 94 % of control | dose: 6.25 mg/kg/injection, schedule: Q01DX009 (ip), vehicle: saline with Tween-80 94 % of control | dose: 12.5 mg/kg/injection, schedule: Q01DX009 (ip), vehicle: saline with Tween-80 94 % of control

C=CCc1ccc(OC(=O)Nc2ccc(S(=O)(=O)CC)cc2)c(OC)c1
inactive: [1] 90 % of control | [2] 93 % of control | [3] 93 % of control

OC(CF)C(O)C(O)C(O)CF (stereo not given)
inactive: [4] 95 % of control | dose: 100.0 mg/kg/injection, schedule: Q01DX001 (ip), vehicle: saline 101 % of control | dose: 200.0 mg/kg/injection, schedule: Q01DX001 (ip), vehicle: saline 93 % of control | [5] 101 % of control | dose: 400.0 mg/kg/injection, schedule: Q01DX001 (ip), vehicle: saline 93 % of control

CC1(C)OC2COC(c3[nH]nc(C(N)=O)c3I)C2O1 (stereo not given)
inactive: dose: 100.0 mg/kg/injection, schedule: Q01DX005 (ip), vehicle: saline 93 % of control | dose: 200.0 mg/kg/injection, schedule: Q01DX005 (ip), vehicle: saline 95 % of control

Clc1ccc(NC2=NCCO2)cc1Cl
inactive: dose: 44.0 mg/kg/injection, schedule: Q04DX003 (ip), vehicle: saline with Tween-80 101 % of control | dose: 66.0 mg/kg/injection, schedule: Q04DX003 (ip), vehicle: saline with Tween-80 103 % of control | dose: 150.0 mg/kg/injection, schedule: Q04DX003 (ip), vehicle: saline with Tween-80 93 % of control | [6] 92 % of control | [7] 94 % of control

COC1=CC(C)C2CC3OC(O)CC4C(C)=C(OC)C(=O)C(C2(C)C1=O)C34C (stereo not given)
inactive: [8] 102 % of control | [9] 91 % of control | [10] 96 % of control | [11] 105 % of control | [12] 100 % of control | [13] 97 % of control | [14] 105 % of control | dose: 400.0 mg/kg/injection, schedule: Q01DX009 (ip), vehicle: Klucel (hydroxypropylcellulose) (HPC) 94 % of control | [15] 96 % of control

CC1(C)c2ccccc2-c2nc3ccccc3nc2C1O (stereo not given)
inactive: [8] 94 % of control | [11] 97 % of control | [14] 103 % of control

CC1CCc2ccccc2N1C1=NCCO1 (stereo not given)
inactive: dose: 19.0 mg/kg/injection, schedule: Q04DX003 (ip), vehicle: saline 97 % of control | dose: 38.0 mg/kg/injection, schedule: Q04DX003 (ip), vehicle: saline 94 % of control | dose: 75.0 mg/kg/injection, schedule: Q01DX001 (ip), vehicle: saline 102 % of control

[I][Pb]([c]1ccccc1)([c]1ccccc1)[c]1ccccc1
inactive: dose: 12.5 mg/kg/injection, schedule: Q04DX003 (ip), vehicle: Klucel (hydroxypropylcellulose) (HPC) 98 % of control | dose: 25.0 mg/kg/injection, schedule: Q04DX003 (ip), vehicle: Klucel (hydroxypropylcellulose) (HPC) 94 % of control

CC(C)CC(=O)OCc1ccc2c(c1)OCO2
inactive: dose: 222.0 mg/kg/injection, schedule: Q01DX Z (ip), vehicle: saline 109 % of control | dose: 333.0 mg/kg/injection, schedule: Q01DX Z (ip), vehicle: saline 102 % of control | dose: 500.0 mg/kg/injection, schedule: Q01DX Z (ip), vehicle: saline 108 % of control

COc1ccc(-c2cnc3c(N)nn(C)c3n2)cc1
inactive: [16] 109 % of control | dose: 100.0 mg/kg/injection, schedule: Q04DX003 (ip), vehicle: saline with Tween-80 92 % of control | [17] 101 % of control | [6] 100 % of control | dose: 400.0 mg/kg/injection, schedule: Q01DX009 (ip), vehicle: saline with Tween-80 109 % of control | [7] 94 % of control

Cc1ccc(C(=O)Nc2ccc([N+](=O)[O-])cc2)cc1
inactive: [10] 88 % of control | [13] 100 % of control | [15] 98 % of control

C=C1C2C3CCC(C3)C2C(O)C2C3CCC(C3)C12 (stereo not given)
inactive: dose: 50.0 mg/kg/injection, schedule: Q01DX009 (ip), vehicle: saline with Tween-80 96 % of control | [16] 93 % of control | [17] 93 % of control

O=[N+]([O-])c1ccc(N=Cc2ccccc2O)c(O)c1
inactive: [1] 95 % of control | [2] 104 % of control | [3] 94 % of control

[N-]=[N+]=Nc1ccc2cc3ccccc3nc2c1
inactive: [18] 89 % of control | [19] 95 % of control | [20] 87 % of control

CCCCOP(=O)(/C=C/c1ccc(NC(C)=O)cc1)OCCCC
inactive: dose: 100.0 mg/kg/injection, schedule: Q04DX002 (ip), vehicle: Klucel (hydroxypropylcellulose) (HPC) 104 % of control | dose: 200.0 mg/kg/injection, schedule: Q04DX002 (ip), vehicle: Klucel (hydroxypropylcellulose) (HPC) 96 % of control | dose: 400.0 mg/kg/injection, schedule: Q04DX002 (ip), vehicle: Klucel (hydroxypropylcellulose) (HPC) 89 % of control

COC1(c2ccccc2)OC(Cc2ccccc2)=NC1(C)C (stereo not given)
inactive: [10] 94 % of control | [13] 94 % of control | [15] 94 % of control

COc1ccc(NC(=O)CC=C(C)C)nn1
inactive: dose: 50.0 mg/kg/injection, schedule: Q01DX009 (ip), vehicle: Klucel (hydroxypropylcellulose) (HPC) 100 % of control | [9] 100 % of control | [10] 102 % of control | [12] 91 % of control | [13] 104 % of control | [15] 110 % of control

O=C1N(CCO)CNC1(c1ccccc1)c1ccccc1
inactive: dose: 100.0 mg/kg/injection, schedule: Q01DX001 (ip), vehicle: saline with Tween-80 102 % of control | dose: 200.0 mg/kg/injection, schedule: Q01DX001 (ip), vehicle: saline with Tween-80 98 % of control

COP(=O)(OC)C1C2CC3C(C2)C31 (stereo not given)
inactive: [18] 103 % of control | [19] 97 % of control | [20] 100 % of control

CS(=O)(=NC(=S)Nc1ccccc1)c1ccccc1 (stereo not given)
inactive: [4] 97 % of control | dose: 150.0 mg/kg/injection, schedule: Q01DX009 (ip), vehicle: saline 100 % of control | [5] 100 % of control

COc1cc(N)ccc1C(=O)O
inactive: dose: 100.0 mg/kg/injection, schedule: Q04DX003 (ip), vehicle: saline 94 % of control | dose: 200.0 mg/kg/injection, schedule: Q04DX003 (ip), vehicle: saline 96 % of control | dose: 400.0 mg/kg/injection, schedule: Q04DX003 (ip), vehicle: saline 97 % of control
